The values below come from US20020198189A1, “New use” (priority 2000, published 2002).

Structures are written as SMILES.

On to `CCCC1c2nc[nH]c2CCN1C(=O)OCc1ccccc1.O=C(O)C(F)(F)F` (stereo not shown), for which the melting point fell in the range of 166 to 167 °C.

Usually melting point stands for the temperature, or range, at which the solid turns liquid.
